# Laboratory results published in patent EP4813979A1, “COMPOUND FOR EGFR PROTEIN DEGRADATION AND USE THEREOF” (TYK Medicines, Inc., priority 2023, dated 2025).
# Where two headings read alike, the source gives them in different places.
# Assays:
# Format in all cases: cell-based
# [1] = system: A431; test: Cell anti-proliferation experiment (CTG); conditions: Homo sapiens, A431 (wild-type EGFR), class symbol
# Description: (§1) H1975 has an EGFR: T790M/L858R double mutation, PC-9 has an EGFR exon 19 deletion, and HCC827 has an exon 19 deletion mutation. Baf3-19del- T790M -C797S (Baf3-DTC) is a stable Ba/F3 clone expressing exogenous EGFR gene bearing T790M, C797S, and […] triple amino acid mutations, purchased from KYinno. Baf3-L858R-T790M - C797S (Baf3-LTC) is a stable Ba/F3 clone expressing exogenous EGFR gene bearing […], T790M, and C797S triple mutations, purchased from KYinno. A549 is a wild-type EGFR, purchased from Nanjing Kebai Biotechnology. A431 is a wild-type EGFR, purchased from Shanghai Xinyu Biotechnology. CellCounting-Lite2.0, Trypsin EDTA, 37°C CO2 incubator, cell counter, EnVision Serial No. 1050454.
# (§2) • A) Digested logarithmic phase cells with Trypsin EDTA, added culture medium to stop the reaction, and mixing well with a pipette to prepare a cell suspension. • B) Used Vi-cell to determine cell concentration, and prepared a suspension of 15,000-25,000 cells per milliliter according to the experimental purpose and cell characteristics. • C) After prepared the cell suspension, mixed it gently and added 100 µL to each well, so that the cell density to be tested is 1500-2500 per well.
# (§3) • A) Weighed approximately 2 mg the compound and calculated the required volume of DMSO according to the formula: Compound mass (mg) * Compound purity (%) / Compound molecular weight * 1000. • B) Placed the inoculated cell culture plate into an incubator and incubated for about 24 hours. Then added compounds of varying concentrations. • C) Diluted the 10mM compound stock solution to […] with culture medium, and added the […] compound solution to the second column of the deep well plate in sequence, and added […] culture medium containing 0.5% DMSO to the third to eleventh columns. • D) Gradient dilution: Taked 125 µL solution from the second column and added it to the third column, mix well; then taked 125 µL solution from the third column and added it to the fourth column, repeated this operation until the tenth column. • E) Used a multichannel pipette, aspirated 25 µL the compound from the deep-well plate and added it to a 96-well culture plate. Repeated this process three times for each compound on the 96-well plate. This will ultimately create a concentration gradient of up to 10,000 nM at a 1:4 ratio on the 96-well plate.
# (§4) • A) The effects of the compound were observed under an inverted microscope after the 96-well plate was incubated in an incubator for 72 hours. • B) Added 25 µL CTG solution to each well, placed on a shaker for 10 minutes, and read the […] of each well.
# (§5) Calculate the % Cell Viability using the following formula: %Cell Viability = 100% × (Lum_Sample−Lum_LC)/(Lum_HC−Lum_LC) [formula] • Lum_HC: Cell readings from the 0.1% DMSO control group • Lum_Sample: Cell readings with added compound • Lum_LC: Blank culture medium reading
# (§6) The IC50 value was obtained by curve fitting using GraphPad Prism 8 software.
# [2] = system: A549; test: Cell anti-proliferation experiment (CTG); conditions: Homo sapiens, A549 (wild-type EGFR), class symbol
# Description: as §1, §2, §3, §4, §5, §6
# [3] = system: Baf3-19del- T790M -C797S (Baf3-DTC); test: Cell anti-proliferation experiment (CTG); conditions: class symbol
# Description: as §1, §2, §3, §4, §5, §6
# [4] = system: Baf3-L858R-T790M - C797S (Baf3-LTC); test: Cell anti-proliferation experiment (CTG); conditions: class symbol
# Description: as §1, §2, §3, §4, §5, §6
# [5] = system: H1975; test: Cell anti-proliferation experiment (CTG); conditions: Homo sapiens, H1975 (EGFR T790M/L858R), class symbol
# Description: as §1, §2, §3, §4, §5, §6
# [6] = system: HCC827; test: Cell anti-proliferation experiment (CTG); conditions: Homo sapiens, HCC827 (exon 19 deletion), class symbol
# Description: as §1, §2, §3, §4, §5, §6
# [7] = system: PC-9; test: Cell anti-proliferation experiment (CTG); conditions: Homo sapiens, PC-9 (EGFR exon 19 deletion), class symbol
# Description: as §1, §2, §3, §4, §5, §6
# [8] = biological target: EGFR in Baf3-19del-T790M-C797S (Homo sapiens, UniProt P00533, C797S/DEL746-750/T790M); test: EGFR PROTAC HTRF experiment (total EGFR degradation)
# Sequence of EGFR in Baf3-19del-T790M-C797S (P00533 with tags, fused parts or gaps DEL746-750/T790M/C797S): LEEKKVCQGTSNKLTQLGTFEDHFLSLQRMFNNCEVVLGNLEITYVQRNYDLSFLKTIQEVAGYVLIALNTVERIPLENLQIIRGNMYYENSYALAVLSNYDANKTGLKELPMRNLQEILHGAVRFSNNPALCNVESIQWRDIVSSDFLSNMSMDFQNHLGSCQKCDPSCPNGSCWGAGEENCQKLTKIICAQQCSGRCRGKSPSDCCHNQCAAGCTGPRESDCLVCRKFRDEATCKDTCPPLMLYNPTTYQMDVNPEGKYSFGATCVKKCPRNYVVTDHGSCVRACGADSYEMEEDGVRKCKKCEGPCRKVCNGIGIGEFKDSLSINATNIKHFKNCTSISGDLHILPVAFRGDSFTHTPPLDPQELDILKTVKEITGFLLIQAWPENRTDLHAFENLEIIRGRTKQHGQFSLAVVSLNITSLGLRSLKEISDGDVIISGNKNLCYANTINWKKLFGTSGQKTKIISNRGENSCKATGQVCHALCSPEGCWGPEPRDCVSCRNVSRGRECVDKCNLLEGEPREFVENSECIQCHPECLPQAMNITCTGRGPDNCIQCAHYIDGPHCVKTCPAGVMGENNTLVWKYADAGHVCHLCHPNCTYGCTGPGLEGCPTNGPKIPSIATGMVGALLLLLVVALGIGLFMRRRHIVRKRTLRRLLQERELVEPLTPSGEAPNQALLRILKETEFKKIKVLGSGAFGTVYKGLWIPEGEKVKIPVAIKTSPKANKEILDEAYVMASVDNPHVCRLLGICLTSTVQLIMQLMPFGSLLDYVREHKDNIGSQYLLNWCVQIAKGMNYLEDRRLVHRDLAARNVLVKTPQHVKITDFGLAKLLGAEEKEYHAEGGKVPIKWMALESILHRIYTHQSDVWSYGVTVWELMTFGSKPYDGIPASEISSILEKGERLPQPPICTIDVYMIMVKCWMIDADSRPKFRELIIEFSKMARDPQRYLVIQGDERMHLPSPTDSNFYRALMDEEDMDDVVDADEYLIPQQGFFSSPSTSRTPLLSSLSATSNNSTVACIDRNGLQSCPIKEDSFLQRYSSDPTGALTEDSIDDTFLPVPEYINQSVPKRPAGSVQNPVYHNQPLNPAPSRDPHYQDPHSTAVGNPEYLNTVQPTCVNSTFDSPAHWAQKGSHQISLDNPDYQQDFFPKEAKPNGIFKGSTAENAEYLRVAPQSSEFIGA
# Procedure: (§7) [table] Among them, B[…] -C797S (abbreviated as Baf3-DTC) is a stable Ba/F3 clone expressing exogenous EGFR gene bearing T790M, C797S and […] triple amino acid mutations, purchased from KYinno; Baf3-L858R-T790M - C797S (abbreviated as Baf3-LTC) is a stable Ba/F3 clone expressing exogenous EGFR gene bearing […], T790M, C797S triple mutations, purchased from KYinno. [table] [table] Dilutded Eu and d2 antibodies 2μl per well with detection buffer 20-fold. Then mixed the two antibody vials thoroughly. [table] Opened EnVision , locate the HTRF program, configured the board, and then read […]. The fitted curve, DC50 and Dmax of this compound could be generated using GraphPad Prism .
# [9] = biological target: EGFR in Baf3-L858R-T790M-C797S (Homo sapiens, UniProt P00533, C797S/L858R/T790M); test: as above
# Sequence of EGFR in Baf3-L858R-T790M-C797S (P00533 25-1210 T790M/C797S/L858R): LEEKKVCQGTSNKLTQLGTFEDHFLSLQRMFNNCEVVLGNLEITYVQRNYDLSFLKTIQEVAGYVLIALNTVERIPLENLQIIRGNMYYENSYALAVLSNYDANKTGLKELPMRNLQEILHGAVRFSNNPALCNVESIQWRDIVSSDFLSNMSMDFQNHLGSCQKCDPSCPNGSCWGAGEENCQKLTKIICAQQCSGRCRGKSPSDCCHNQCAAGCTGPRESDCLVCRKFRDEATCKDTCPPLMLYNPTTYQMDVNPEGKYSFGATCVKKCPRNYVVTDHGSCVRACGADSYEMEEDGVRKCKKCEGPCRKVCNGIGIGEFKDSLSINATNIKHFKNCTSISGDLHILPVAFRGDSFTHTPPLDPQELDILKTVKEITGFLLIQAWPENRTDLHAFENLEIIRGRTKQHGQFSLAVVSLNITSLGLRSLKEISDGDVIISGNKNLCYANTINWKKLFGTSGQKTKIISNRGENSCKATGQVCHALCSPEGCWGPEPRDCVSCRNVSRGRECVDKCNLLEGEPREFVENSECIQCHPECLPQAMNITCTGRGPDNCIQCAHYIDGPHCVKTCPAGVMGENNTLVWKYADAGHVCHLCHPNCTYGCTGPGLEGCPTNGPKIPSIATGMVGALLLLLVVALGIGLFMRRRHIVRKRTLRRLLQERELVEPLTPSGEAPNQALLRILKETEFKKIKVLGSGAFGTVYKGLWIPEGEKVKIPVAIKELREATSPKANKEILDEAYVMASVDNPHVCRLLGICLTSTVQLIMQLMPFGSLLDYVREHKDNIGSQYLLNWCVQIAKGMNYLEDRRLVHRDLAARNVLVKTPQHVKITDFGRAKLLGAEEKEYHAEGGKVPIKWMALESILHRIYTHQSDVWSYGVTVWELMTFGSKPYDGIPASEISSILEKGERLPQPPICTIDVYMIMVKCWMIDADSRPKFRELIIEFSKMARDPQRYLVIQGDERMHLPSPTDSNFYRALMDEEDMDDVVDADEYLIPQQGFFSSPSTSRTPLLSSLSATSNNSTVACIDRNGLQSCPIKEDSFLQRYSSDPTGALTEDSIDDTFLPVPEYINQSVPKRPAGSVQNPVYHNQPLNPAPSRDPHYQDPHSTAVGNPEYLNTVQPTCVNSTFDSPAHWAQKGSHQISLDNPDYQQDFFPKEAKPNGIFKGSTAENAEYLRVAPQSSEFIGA
# Procedure: as §7
# [10] = read-out: Baf3-DTC DC50; Baf3-DTC, incubated 16 hours, HTRF total EGFR
# [11] = read-out: Baf3-LTC DC50; Baf3-LTC, incubated 16 hours, HTRF total EGFR
# [12] = Baf3-DTC, incubated 16 hours, HTRF total EGFR; read-out: Baf3-DTC DC50
# [13] = Baf3-DTC, incubated 16 hours, HTRF total EGFR; read-out: Baf3-DTC Dmax
# [14] = Baf3-LTC, incubated 16 hours, HTRF total EGFR; read-out: Baf3-LTC DC50
# [15] = Baf3-LTC, incubated 16 hours, HTRF total EGFR; read-out: Baf3-LTC Dmax
Structure (SMILES),"IC50 ([1]; A-431, 72 hours) [nM]",IC50 ([2]; 72 hours) [nM],IC50 ([3]; 72 hours) [nM],IC50 ([4]; 72 hours) [nM],"IC50 ([5]; NCI-H1975, 72 hours) [nM]",IC50 ([6]; 72 hours) [nM],IC50 ([7]; 72 hours) [nM],"DC50 [8, 10] [nM]",Dmax ([8]; read-out: Baf3-DTC Dmax) [%],"DC50 [9, 11] [nM]",Dmax ([9]; read-out: Baf3-LTC Dmax) [%],"IC50 ([1]; A-431, 72 h) [nM]","IC50 ([2]; A549, 72 h) [nM]",IC50 ([3]; 72 h) [nM],IC50 ([4]; 72 h) [nM],"IC50 ([5]; NCI-H1975, 72 h) [nM]","IC50 ([6]; HCC827, 72 h) [nM]","IC50 ([7]; PC-9, 72 h) [nM]","DC50 [8, 12] [nM]","DC50 [9, 14] [nM]",other results
CCc1cc(Nc2ncc(Cl)c(Nc3ccc4nccnc4c3P(C)(C)=O)n2)c(OC)cc1N1CCN(C(=O)CN2CCC(c3cc4c(cc3F)c(N3CCC(=O)NC3=O)nn4C)C(F)(F)C2)CC1 (stereo not shown) [TA-007],10 to 100,10 to 100,10 to 100,< 10,100 to 1000,10 to 100,100 to 1000,< 10,70 to 100,< 10,70 to 100,,,,,,,,,,
CCc1cc(Nc2ncc(Cl)c(Nc3ccccc3N(C)S(C)(=O)=O)n2)c(OC)cc1N1CCN(C(=O)CN2CCC(c3cc4c(cc3F)c(N3CCC(=O)NC3=O)nn4C)C(F)(F)C2)CC1 (stereo not shown) [TA-013],,,,,,,,,,,,> 1000,> 1000,< 10,10 to 100,10 to 100,> 1000,> 1000,< 10,< 10,"Dmax [8, 13]: 70 to 100%; Dmax [9, 15]: 70 to 100%"
CCc1ccc(Nc2nc(Nc3cc(CC)c(N4CCN(C(=O)CN5CCC(c6cc7c(cc6F)c(N6CCC(=O)NC6=O)nn7C)C(F)(F)C5)CC4)cc3OC)ncc2Cl)c(P(C)(C)=O)c1 (stereo not shown) [TA-035],,,,,,,,,70 to 100,,70 to 100,,,,,,,,10 to 100,10 to 100,
CCc1cc(Nc2ncc(Cl)c(Nc3ccccc3P3(=O)CCCC3)n2)c(OC)cc1N1CCN(C(=O)CN2CCC(c3cc4c(cc3F)c(N3CCC(=O)NC3=O)nn4C)C(F)(F)C2)CC1 (stereo not shown) [TA-045],,,,,,,,,70 to 100,,70 to 100,,,,,,,,10 to 100,10 to 100,
CCc1cc(Nc2ncc(Br)c(Nc3ccccc3P(C)(C)=O)n2)c(OC)cc1N1CC2(CCN(C(=O)CN3CCC(c4cc5c(cc4F)c(N4CCC(=O)NC4=O)nn5C)C(F)(F)C3)CC2)C1 (stereo not shown) [TC-164],> 1000,> 1000,< 10,< 10,< 10,10 to 100,100 to 1000,< 10,70 to 100,< 10,70 to 100,,,,,,,,,,
CCc1cc(Nc2ncc(Cl)c(Nc3ccccc3C(=O)NC)n2)c(OC)cc1N1CCN(CCN2CCC(c3cc4c(cc3F)c(N3CCC(=O)NC3=O)nn4C)CC2)CC1 [TD-001],,,,,,,,,,,,> 1000,10 to 100,10 to 100,10 to 100,< 10,< 10,100 to 1000,100 to 1000,10 to 100,"Dmax [8, 13]: 50 to 70%; Dmax [9, 15]: 50 to 70%"
